Consider 1 substance from patent US8715621B2, “Radical polarizing agents for dynamic nuclear polarization” (Massachusetts Institute of Technology, priority 2012, dated 2014).

One data set is described as follows: Stability in air. The format is physicochemical.
Data set [1] in a line: EPR spectrum: line width, aggregation, dimerization. As to conditions: solution, glass or solid.
The nature of data set [2]: Solubility in water / aqueous media. The format is physicochemical.

For the substance 1,3-bisdiphenylene-2-phenylallyl [BDPA], in “Stability in air”, the air stability entry is reported as “air stable”. Besides, in data set [1], the “aggregate formation or radical dimerization” value is reported as “no dimerization in solid or in solution”. Besides, the “solubility in water / aqueous media” value in data set [2] is “lack of solubility in aqueous media”.
